# Test results from patent US7238512B2, “Method to produce para-hydroxybenzoic acid in the stem tissue of green plants by using a tissue-specific promoter” (E. I. du Pont de Nemours and Company, priority 2003, dated 2007).
# Where two headings read alike, the source gives them in different places.
# T1: Caulobacter crescentus HCHL (4-hydroxycinnamoyl-CoA hydratase/lyase), SEQ ID NO:61 (Caulobacter vibrioides, UniProt Q9A5P6)
# T1 sequence (Q9A5P6 1-275): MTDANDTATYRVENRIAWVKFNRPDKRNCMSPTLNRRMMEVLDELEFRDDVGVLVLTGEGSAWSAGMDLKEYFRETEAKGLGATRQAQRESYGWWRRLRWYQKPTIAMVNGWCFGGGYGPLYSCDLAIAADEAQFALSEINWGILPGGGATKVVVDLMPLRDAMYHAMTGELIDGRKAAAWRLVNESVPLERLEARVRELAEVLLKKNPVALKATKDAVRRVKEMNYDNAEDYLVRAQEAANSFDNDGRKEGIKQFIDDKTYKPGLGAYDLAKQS
# Tests used:
# Arabidopsis plants [1] = experiment: pHBA analysis in tissue of transgenic plants by acid hydrolysis and HPLC; assay type: in vivo, Arabidopsis thaliana; details: for Whole stalk pHBA highest: best primary transformant; for Whole stalk pHBA highest / Basal stalk pHBA average / Basal stalk pHBA highest: Table 5; for Basal stalk pHBA average / Basal stalk pHBA highest: primary transformants, eight weeks; for Basal stalk pHBA average: 2 cm stem segment at base; for pHBA levels relative to the best 35S HCHL line: whole stalk tissue, best lines
# Experimental: If not stated otherwise, plants were grown under standard conditions ([…], 12 h darkness) in a greenhouse. Plants expressing HCHL genes where grown at 100 μE m^−2 sec^−1, 14 h light (23° C.), 12 h (18° C.) darkness and 70% relative humidity in growth chambers (Conviron, USA). Sterile plant cultures were maintained under identical conditions in a plant growth chamber (Percival, USA).
# Arabidopsis thaliana plants were transformed using Agrobacterium strains (C58, C1 GV3101 MP90) (Koncz, C. and Schell, J., Mol. Gen. Genet., 204:383-396 (1986)) and published protocols of the in-planta transformation method (Desfeux et al., Plant Physiology, 123(3):895-904 (2000)). Selection for transformants carrying the NPTII gene was conducted on sterile growth media in the presence of 50 mg/L kanamycin. Selection for transformants carrying the BAR gene was conducted on sterile growth media in the presence of 7.5 mg/L glufosinate or by germinating seed in soil followed by spray-application of an aqueous solution (6 mg/L) of glufosinate herbicide (Sigma, USA) 7 days after germination. Plants destined for plant transformation experiments were grown under permanent light at 23° C. to accelerate flower development.
# pHBA was quantitated in plant tissue by HPLC analysis. For determination of pHBA conjugates, fresh oven-dried or lyophilized tissue was extracted with 50% MeOH. To quantitate free pHBA plant samples (fresh, dried, lyophilized plant tissue or dried-down methanol extracts of plant tissue) were subjected to acid hydrolysis. Dried or lyophilized tissue was ground to a fine powder using a Cyclotec 1093 tissue mill (Foss Tecator, Sweden) prior to hydrolysis. Tissue (5-25 mg of dried or lyophilized material, 10-100 mg of fresh tissue) was supplemented with 500-750 μL of 1M HCl and incubated at 100° C. for 1-3 h. The hydrolysate was adjusted to alkaline pH by addition of one volume of 1.1 M NaOH.
# [2] = test system: Pseudomonas fluorescens AN103 HCHL (4-hydroxycinnamoyl-CoA hydratase/lyase); details: published, Mitra et al., Arch. Biochem. Biophys., 365(1):6-10 (1999); cited from earlier work
# [3] = test system: Pseudomonas putida (DSM 12585) HCHL (4-hydroxycinnamoyl-CoA hydratase/lyase), native, SEQ ID NO:6
# Experimental: LB medium (500 mL containing 50 mg/L) kanamycin was inoculated with a single colony of E. coli BL21 DE3 cells harboring the pET HCHL expression construct. Cells were grown to an ODλ=600 nm of 0.6 and protein production was induced by the adding of 0.2 mM IPTG. Cells were grown at room temperature for 24 h. Cells were harvested by centrifugation (5000×g for 10 min) and resuspended in 15 mL of 100 mM Tris/HCl (pH 8.5), 20 mM DTT, and 300 mM NaCl. […] Two 2.5-mL aliquots of the cell-free extract were buffer-exchanged using PD10 columns into 50 mM Tris/HCl (pH 7.6), 10 mM Na2SO3, and 1 mM EDTA. Buffer-exchanged extract (7 mL) was loaded onto a Q-sepharose column (15 mL gel bed volume). […] A fraction with HCHL activity was purified further by chromatography on hydroxyapatide (Biorad Econo-Pac cartridge CHT-II, 1 mL gel bed volume (Biorad, Calif., USA)). Approximately 2.5 mL was buffer-exchanged into (10 mM NaPO4, (pH 6.8) and 10 μM CaCl2).
# [4] = target: T1, Caulobacter crescentus HCHL (4-hydroxycinnamoyl-CoA hydratase/lyase), SEQ ID NO:61; details: Table 12; 0.8 ng enzyme, pHCACoA 0.9 to 440 μM
# [5] = test system: Pseudomonas putida (DSM 12585) HCHL (4-hydroxycinnamoyl-CoA hydratase/lyase), variant with C-terminal hexa-histidine tag, SEQ ID NO:10; experiment: Kinetic properties of the purified his-tagged HCHL enzyme from Pseudomonas putida (DSM 12585); HPLC quantitation of pHBALD / vanillin; details: for Km / Vmax: his-tagged enzyme, 5.5 min; for Km: 100 mM Tris/HCl pH 8.5, 30° C., pHCACoA 343 to 2.7 μM, feruloylCoA 293 to 2.3 μM; for Vmax: pH 8.5, 30° C.
# Experimental: A second expression construct was generated that expresses a variant of the HCHL protein that carries a C-terminal hexa-histidine tag.
# LB medium (200 mL containing 50 mg/L kanamycin) was inoculated with a single colony of E. coli BL21 DE3 cells harboring the pET29a HCHL 6×His Tag expression construct. Cells were grown to an ODλ=600 nm of 0.6 and protein production was induced by addition of 0.2 mM IPTG. Cells were grown at room temperature for 24 h. Cells were harvested by centrifugation (5000×g for 10 min) and resuspended in 2.5 mL of 100 mM Tris/HCl (pH 8.5), 20 mM DTT, and 300 mM NaCl. The cell suspension was passed twice through a French press and cleared by centrifugation (30000×g, 20 min, at 4° C.). The cell-free extract was buffer-exchanged using PD10 columns into 20 mM NaPO4 (pH 7.5), 500 mM NaCl, and 10 mM imidazole and loaded on a 5 mL HiTrap chelating chromatography cartridge (Amersham Pharmacia, USA). The column was washed with 20 mL of loading buffer and 20 mL of loading buffer containing 70 mM imidazole. The his-tagged HCHL protein was eluted from the column with a linear gradient from 70-1000 mM imidazole in loading buffer.
# Arabidopsis plants [6] = details: in vivo
# [7] = HCHL enzyme activity in leaf and stalk tissue of transgenic plants; details: leaf, T2 lines, eight weeks, Table 6
# Text: For this experiment the basal stem segment was used.
# The primary transformants were self crossed and T2 seed material was germinated on selective media containing glufosinate, transferred to soil, and grown for eight weeks. Leaf and stalk tissue was harvested and subjected to pHBA analysis and assayed for HCHL activity (Table 6).
# T2 plants of the Caulobacter and Pseudomonas fluorescens HCHL transgenics were germinated on selective media and grown in soil for 6 weeks to obtain sufficient stalk tissue for analysis of HCHL enzyme activity.
# [8] = HCHL enzyme assay, kinetic properties of purified recombinant HCHL with pHCACoA; assay type: biochemical; details: compared to the Pseudomonas fluorescens AN103 enzyme
# Text: The reaction mixture was cleared by centrifugation.
# [9] = substrate: CC(C)(COP(=O)(O)OP(=O)(O)OC[C@H]1O[C@@H](n2cnc3c(N)ncnc32)[C@H](O)[C@@H]1OP(=O)(O)O)[C@@H](O)C(=O)NCCC(=O)NCCSC(=O)/C=C/c1ccc(O)cc1; experiment: purified protein, by the assay type; details: other: Table 12, 0.8 ng enzyme, pHCACoA 0.9 to 440 μM, pH 8.5, 30° C.
# [10] = native enzyme, Example 1, pH 8.5, 30° C.
molecule,measurement,setting,value
"4CL1 HCHL: Arabidopsis 4CL1 promoter fused to P. putida HCHL coding sequence, SEQ ID NO:28",Whole stalk pHBA highest,Arabidopsis plants [1],12.93 (line 183) mg/g DW
same,Basal stalk pHBA average,Arabidopsis plants [1],0.55 mg/g FW
same,Basal stalk pHBA highest,Arabidopsis plants [1],3.87 mg/g FW
same,pHBA levels relative to the best 35S HCHL line,Arabidopsis plants [1],60%
"CC(C)(COP(=O)(O)OP(=O)(O)OC[C@H]1O[C@@H](n2cnc3c(N)ncnc32)[C@H](O)[C@@H]1OP(=O)(O)O)[C@@H](O)C(=O)NCCC(=O)NCCSC(=O)/C=C/c1ccc(O)cc1 [pHCACoA, para-coumaroyl-CoA]",Km,[2],5.3 µM
same,Vmax,[2],73 nkat/mg
same,Vmax,"[3]; Table 12, 1.4 ng enzyme, pHCACoA 0.9 to 440 μM",43 nkat mg^−1
same,Km,"[3]; Table 12, 1.4 ng enzyme, pHCACoA 0.9 to 440 μM, pH 8.5, 30° C.",2.4 µM
same,catalytic center activity (per enzyme dimer),"[3]; from Vmax with pHCACoA, using 30,865.1 Da per monomer",2.65 s⁻¹
same,Km,[3]; [10],2.4 µM
same,Vmax,[3]; [10],43 nkat/mg
same,Vmax,[4],240 nkat mg^−1
same,catalytic center activity (per enzyme dimer),"[5]; from Vmax with pHCACoA, using 32,348.8 Da per monomer",3.4 s⁻¹
same,Km,[5],2.53 µM
same,Vmax,[5],53.8 nkat/mg
"AtCesA7 (IRX3) HCHL: Arabidopsis AtCesA7 (IRX3) promoter fused to P. putida HCHL coding sequence, SEQ ID NO:30",Whole stalk pHBA highest,Arabidopsis plants [1],12.96 (line 366) mg/g DW
same,Basal stalk pHBA average,Arabidopsis plants [1],1.21 mg/g FW
same,Basal stalk pHBA highest,Arabidopsis plants [1],3.91 mg/g FW
same,pHBA levels relative to the best 35S HCHL line,Arabidopsis plants [1],60%
same,plant phenotype,Arabidopsis plants [6],phenotypically indistinguishable from wild type plants
same,HCHL activity,[7],no detectable HCHL activity
"C3′H HCHL: Arabidopsis C3′H promoter fused to P. putida HCHL coding sequence, SEQ ID NO:29",Whole stalk pHBA highest,Arabidopsis plants [1],9.52 (line 227) mg/g DW
same,Basal stalk pHBA average,Arabidopsis plants [1],0.41 mg/g FW
same,Basal stalk pHBA highest,Arabidopsis plants [1],1.65 mg/g FW
"C4H HCHL: Arabidopsis C4H promoter fused to P. putida HCHL coding sequence, SEQ ID NO:27",Whole stalk pHBA highest,Arabidopsis plants [1],23.42 (line 35) mg/g DW
same,Basal stalk pHBA average,Arabidopsis plants [1],0.89 mg/g FW
same,Basal stalk pHBA highest,Arabidopsis plants [1],5.54 mg/g FW
same,pHBA levels relative to the best 35S HCHL line,Arabidopsis plants [1],106%
COc1cc(/C=C/C(=O)SCCNC(=O)CCNC(=O)[C@H](O)C(C)(C)COP(=O)(O)OP(=O)(O)OC[C@H]2O[C@@H](n3cnc4c(N)ncnc43)[C@H](O)[C@@H]2OP(=O)(O)O)ccc1O [feruloylCoA],Km,[2],2.4 µM
same,Vmax,[2],36.5 nkat/mg
same,Km,[5],2.39 µM
same,Vmax,[5],37.3 nkat/mg
"Caulobacter crescentus HCHL (4-hydroxycinnamoyl-CoA hydratase/lyase), SEQ ID NO:61 (Caulobacter vibrioides CB15) (protein) MTDANDTATYRVENRIAWVKFNRPDKRNCMSPTLNRRMMEVLDELEFRDDVGVLVLTGEGSAWSAGMDLKEYFRETEAKGLGATRQAQRESYGWWRRLRWYQKPTIAMVNGWCFGGGYGPLYSCDLAIAADEAQFALSEINWGILPGGGATKVVVDLMPLRDAMYHAMTGELIDGRKAAAWRLVNESVPLERLEARVRELAEVLLKKNPVALKATKDAVRRVKEMNYDNAEDYLVRAQEAANSFDNDGRKEGIKQFIDDKTYKPGLGAYDLAKQS",improvement of catalytic efficiency (Kcat/Km),[8],50%
same,Km,[9],4 µM
